Here are results for one molecule from US6015820A, “4-Aryl-thio-pyridin-2(1H)-ones, medicines containing them and their uses in the treatment of illnesses linked to HIV” (priority 1995, dated 2000).

What all share (format): cell-based
One assay deals with HIV-1 LAI. Put plainly: anti-HIV-1 activity: replication of HIV-1 LAI on CEM-SS cells. An outline of the steps:
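CEM-SS cells were infected with 100 TCID50 virus for 30 min, washed, then cultured 5 days with test compound at varied concentrations. Virus production was measured as reverse transcriptase activity in culture supernatant, and IC50 was derived by median-effect dose-effect analysis.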

The test system of assay [1] is HIV-1 resistant to Nevirapine (N119). Put plainly: microbe, parasite or virus in culture. The settings on record: for IC50: Human immunodeficiency virus 1, CEM-SS. The protocol: The effects of the compounds were evaluated on the replication of HIV-1 (see Table 2) on CEM-SS cells (cell lines of the lymphocytic lineage) strongly infected with HIV-1 LAI as described by Moog et al. (Antiviral Research (1994), 24, 275-288). The CEM-SS and the HIV-1 resistant to Nevirapine (N119) carrying a point mutation at codon 181 of the IT, were supplied respectively by P. NARA and D. RICHMAN through the intermediary of the AIDS Research and Reference Reagent Program, Division of AIDS, NIAID, NIH (USA) (Catalogue references : No. 776 and No. 1392).
The virus production was measured by quantifying the activity of the inverse transcriptase associated with viral particles released into the culture supernatant. In short, cells were infected with 100 TCID50 for 30 minutes; after adsorption of the virus, unbound particles were removed by two washings and the cells were cultivated in the presence of different concentrations of the compounds tested for 5 days before determining the viral production. The concentration inhibiting 50% of the viral multiplication (IC50) came from the computer plot of the median effect of the dose effect results (Chou et al. Elsevier Science Publishers, Cambridge U.K. (1985), 19-28).

A further assay deals with isolated virion HIV-1LAI. Put plainly: infectivity of the isolated virion after treatment with inhibitors (HT4LacZ cells). The method, then: H9 cells chronically infected with HIV-1LAI (10^8 /ml) were cocultivated with MT4 cells (10^8 /ml) for 48 hours in an RMPI medium supplemented by 10% of calf foetal serum (CFS). The cells were then removed by centrifugation and then the supernatant liquid was filtered (0.45 μm) to remove residual cells and cell debris.
After having been incubated with the various inhibitors, the viral supernatants (200 μl) were deposited in the filtering part of a VectaSpin tube (WHATMAN) fitted with an ANAPORE membrane of porosity 0.02 μm. For 10 minutes they were subjected to centrifugation, the acceleration of which reached 6000 g at the filtering membrane. The viral residuums thereby obtained (10-15 μl ) were washed 3 times under the same conditions with 500 μl of RPMI then restored to their initial volumes with RPMI containing 10% of CFS.
The HT4LacZ-1 cells were kept in a DMEM medium (glucose 4.5 g/l) supplemented with 10% of calf foetal serum in the presence of Gentamycin (50 mg/l). These cells stemmed from Hela cells in which had been cloned, on the one hand the gene coding for the human CD4 so as to render them susceptible to infection by the HIV (Chesebro and Wehrly, 1988, J. Virol., 62, 3779-3788), and on the other hand the gene for β-Galactosidase which, placed under the dependent of the LTR of the HIV-1 served as a marker for the viral infection (Rocancourt et al. (1990) J. Virol. 1990 64-6, 2660-2688). When the virus infects such cells after its integration into the cellular genome, the production of the regulatory protein TAT activates the LTR of the HIV. The result is an activation of the gene of β-Galactosidase which leads to its production in the intracellular medium and more particularly in the nucleus. It is this protein that serves as a marker of the infection.
The evening of day 0, the HT4LacZ-1 cells were diluted at the rate of 75000 cells per ml of medium. 100 μl of this suspension was then distributed over a flat bottomed plate with 96 wells and was cultivated overnight at 37° C. (5% of CO2).
The morning of day 1, the supernatant liquid was removed by aspiration. Each well was then complemented with 200 μl of the viral supernatant dilutions to be tested. Each dilution was made in a DMEM medium (glucose 4.5 g/l) supplemented with 10% of CFS. The plates were then placed in an environment at 37° C. in the presence of 5% of CO2.
After 48 hours of culture, the supernatant liquid was aspirated, then each well was washed 3 times in PBS before being complemented with 200 μl of developing buffer (Tris-HCl 50 mM pH=8.5, ONPG 5 mg/ml β-mercapto-ethanol 7 μl/ml Triton×100 0.05%). After 4 hours of incubation at 37° C., the optical density of each well was measured.
The concentration of each of the inhibitors of the IT of the HIV-1 was adjusted to 50 mM in DMSO. The later dilutions were carried out on RPMI 1640. 2 μl of suitable dilutions of each of these inhibitors were added to 198 μl of a freshly unfrozen viral suspension. After 3 hours of incubation at ambient temperature, these suspensions were filtered on 0.02 μ VecraSpin tubes, then washed 3 times with 500 μl of RPMI 1640. The viral residuums were then adjusted to 200 μL with the culture medium (RPMI-10% CFS), then tested with regard to their infectivity on HT4LacZ cells.

Entries after “also recorded” stand apart in the source; their conditions may differ. Read-outs that look alike come from different tables or passages of the source.

Turning to `CCc1c(C)[nH]c(=O)c([N+](=O)[O-])c1Sc1cc(C)cc(C)c1` [Compound 7c, 5-ethyl-6-methyl-3-nitro-4-(3', 5'-dimethylphenyl)thio-pyridin-2(1H)-one], the IC50 in the assay with HIV-1 LAI (Human immunodeficiency virus 1, 120 h, Table 2, HIV-1 LAI, CEM-SS cells, 5 days, read-out: IC50, anti-HIV-1 activity) was 6 nM; with HIV-1 LAI (Human immunodeficiency virus 1, CEM-SS, Table 4, HIV-1 (LA1)/CEMSS, read-out: IC50), below 0.4 nM; in assay [1] it was 23 nM; in assay [1] (read-out: IC50, strain resistant to Nevirapine) it was 260 nM. Also, the “SI (selectivity index)” value is given as above 1666 in the assay on HIV-1 LAI (Table 2, HIV-1 LAI, CEM-SS cells) and above 38 in assay [1] (Table 3, strain resistant to Nevirapine). In the assay on isolated virion HIV-1LAI (Human immunodeficiency virus 1, 0.1 μM inhibitor, 3 h, 100 TCID50, compared with viral supernatant subjected to same treatments, mean of 1 to 4 experiments, read-out: Activity of the isolated virions after treatment), the activity at 0.1 µM came to 60%. Moreover, the activity at 1 µM in the assay with isolated virion HIV-1LAI (Human immunodeficiency virus 1, 1 μM inhibitor, 3 h, 100 TCID50, compared with viral supernatant subjected to same treatments, mean of 1 to 4 experiments, read-out: Activity of the isolated virions after treatment) was found to be 1%. In the assay with isolated virion HIV-1LAI (Human immunodeficiency virus 1, 10 μM inhibitor, 3 h, 100 TCID50, compared with viral supernatant subjected to same treatments, mean of 1 to 4 experiments, read-out: Activity of the isolated virions after treatment), the activity at 10 µM is 0%. Besides, the inhibition in infectivity result with isolated virion HIV-1LAI (incubation of 45 minutes, preliminary experiments) was “greater than 98%”. Also, in the assay with isolated virion HIV-1LAI (isolated virion), the “activity on the isolated virion (in words)” value is “truly active on the isolated virion; also recorded: capable, after having penetrated the viral particle, of inhibiting the inverse transcriptase and of suppressing the viral infectivity”.

In general, IC50 refers to the concentration that gives 50% inhibition.
